Laboratory results from patent publication US9889135B2, “Companion diagnostic for CDK4 inhibitors” (Memorial Sloan-Kettering Cancer Center, priority 2013, dated 2018).
Peptide text beside a SMILES is read from it. * marks the point of attachment. Cbz = O=C(OCc1ccccc1)*

What was measured:
[1] = system: MDM2 in LS8817 and LS141 cells; assay: MDM2 level after proteasome inhibition in PD0332991 treated cells; type: cell-based, human; settings: 10 μM MG132 added to cells treated with PD0332991 for two days
LS8817 cells = assay: doxorubicin effect on LS8817 cells; type: cell-based, human
[2] = system: MDM2 and p21 in LS8817, LS0082, LS8107 and LS7785-1 cells; assay: p53 targets by immunoblot after nutlin-3a; type: cell-based, human; settings: forty-eight hours; all of the cell lines
Method: (§1) The indicated cell lines were treated with nutlin-3a or vehicle control and extracts were prepared for immunoblotting (A) or annexin V staining (B) forty-eight hours after treatment. Mean percentage of annexin V+/7-AAD− cells was calculated from three or more independent experiments. Error bars represent standard deviation (*p<0.05).

WD/DDLS cell lines = assay: annexin V staining (apoptosis); type: cell-based, human; settings: nutlin-3a, forty-eight hours; LS8817, LS0082, LS8107 and LS7785-1
Method: FIG. 1A-C. […] Mean percentage of BrdU incorporation or annexin V+/7-AAD− cells was calculated from three or more independent experiments. Error bars represent standard deviation (*p<0.05).
as §1, with “FIG. 13A-B. Nutlin-3a induces apoptosis in all the liposarcoma cell lines. The” for “The”
Cells were stained with BrdU (20 μM for two hours) or annexin V as previously described (22, 48). […] was determined by staining with propidium iodine and FACS analyses (49).

WD/DDLS cells = settings: Ambrosini et al., 2007, Singer et al.; cited from earlier work

CC(C)C[C@@H](C=O)NC(=O)[C@H](CC(C)C)NC(=O)[C@H](CC(C)C)NC(=O)OCc1ccccc1 [MG132] (Cbz-Leu-Leu-Leu-aldehyde)
MDM2 level after addition of MG132 [1]: re-accumulation

COc1cccc2c1C(=O)c1c(O)c3c(c(O)c1C2=O)C[C@@](O)(C(=O)CO)C[C@@H]3O[C@H]1C[C@H](N)[C@H](O)[C@H](C)O1 [doxorubicin]
MDM2 levels (LS8817 cells): without a reduction | p53 (LS8817 cells): accumulation | senescence (LS8817 cells): entry of the LS8817 cells into senescence

COc1ccc(C2=N[C@@H](c3ccc(Cl)cc3)[C@@H](c3ccc(Cl)cc3)N2C(=O)N2CCNC(=O)C2)c(OC(C)C)c1 [nutlin-3a]
p53 targets, MDM2 and p21 [2]: increased | percentage of annexin V stained apoptotic cells (WD/DDLS cell lines): increased | cell response to nutlin-3a (WD/DDLS cells): growth arrest, p53 accumulation and apoptosis
